{"source": "patent US11236357B2", "about": "“Methods of obtaining androecious cucurbit plants” (INSTITUT NATIONAL DE LA RECHERCHE AGRONOMIQUE (INRA), priority 2012, dated 2022)", "key": {"[1]": {"test_system": "androecious plants (cucurbitaceae)", "test": "Induction of female flowers in androecious plants by ethrel", "assay_type": "in vivo", "conditions": "androecious plants treated with ethrel", "description": "The inventors wished to study the transmission of the androecious phenotype from one generation to the other. However, due to the nature of the plants, it is obviously impossible to fecundate an androecious plant with itself or another androecious plant.\nThe inventors have then treated the plants with ethrel, a growth regulator known for inducing female flowers in cucurbitaceae. […] The seeds derived from this fruit have been planted to produce plants which phenotype is androecious: the androecious phenotype of the present invention is thus heritable."}, "monoecious melon plants": {"test_system": "monoecious melon plants", "conditions": "monoecious plants treated by ethrel; prior art; cited from earlier work"}, "[2]": {"target": "Cucumis melo ACS8 variant Cmacs8_L45F (L45→F), SEQ ID No 15 (Cucumis melo, UniProt A0A0S2C3P7, L45F)", "sequence (A0A0S2C3P7 entry or part of it L45F)": "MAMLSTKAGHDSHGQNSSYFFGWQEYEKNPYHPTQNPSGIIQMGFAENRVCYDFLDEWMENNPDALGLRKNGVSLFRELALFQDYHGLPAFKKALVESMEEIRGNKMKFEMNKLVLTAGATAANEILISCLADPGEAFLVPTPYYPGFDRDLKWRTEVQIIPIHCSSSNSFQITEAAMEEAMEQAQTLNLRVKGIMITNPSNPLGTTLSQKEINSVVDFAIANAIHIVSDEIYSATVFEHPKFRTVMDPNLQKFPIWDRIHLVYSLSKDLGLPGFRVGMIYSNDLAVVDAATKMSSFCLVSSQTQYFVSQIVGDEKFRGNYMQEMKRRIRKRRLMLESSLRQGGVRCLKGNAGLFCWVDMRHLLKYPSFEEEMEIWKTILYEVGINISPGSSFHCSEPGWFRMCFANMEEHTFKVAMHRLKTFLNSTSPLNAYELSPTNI", "assay_type": "biochemical", "conditions": "PLP 5 μm; pH 8.5, 25° C.", "protocol": "(§1) Dosing the Transforming Activity of Methionine S-adenosyl into Aminocyclopropane Carboxylate by the 1-aminocyclopropane-1-carboxylate Synthase 8 (ACS8)\n(§2) The enzymatic activity of the ACS8 is measured in vitro by following, by 265-nm spectrophotometry, the formation of 5′-methylthioadenosine (MTA) after involving methionine S-adenosyl, deaminase and different PLP concentrations (pyridoxal 5′-phosphate).\nThe bacterial strain Escherichia coli BL21(DE3)pLYSS is used for the expression of the enzyme. The cloning vector used is the plasmid pET15b (NOVAGEN) which carries the promoter T7 and comprises resistance to ampicillin. S-adenosyl Methionine (SAM), Pyridoxal 5′phosphate (PLP) and 5′Adenylic Acid Deaminase of Aspergillus (deaminase) are available from the SIGMA company. […]\nDue to the presence of a Histidine tag associated with each of the ACS8, the latter are purified by using a nickel column (Ni-IDA 15 ml) previously balanced with TRIS at PH8 and NaCl (500 mM). After passing the solution containing recombinant ACS8 to be purified, the column is then washed with TRIS at PH8 (50 mM) and NaCl (500 mM) added with imidazole (10 mM) until no protein can be detected at the output any longer. […]"}, "[3]": {"target": "Cucumis melo ACS8 (1-aminocyclopropane-1-carboxylate synthase 8), CmACS8, wild, SEQ ID No 12 (Cucumis melo, UniProt A0A0S2C3P7)", "sequence (A0A0S2C3P7 1-440)": "as the sequence (A0A0S2C3P7 entry or part of it L45F) above, with F45L counted along it", "test": "Transforming activity of methionine S-adenosyl into aminocyclopropane carboxylate (MTA formation at 265 nm)", "assay_type": "biochemical", "conditions": "pH 8.5, 25° C.", "protocol": "as §1, §2\n(§3) The bacterial strain Escherichia coli BL21(DE3)pLYSS is used for the expression of the enzyme. The cloning vector used is the plasmid pET15b (NOVAGEN) which carries the promoter T7 and comprises resistance to ampicillin. S-adenosyl Methionine (SAM), Pyridoxal 5′phosphate (PLP) and 5′Adenylic Acid Deaminase of Aspergillus (deaminase) are available from the SIGMA company.\n(§4) These bacteria Escherichia coli BL21(DE3)pLYSS transformed with the construct carrying the 1-aminocyclopropane-1-carboxylate synthase 8 (ACS8) are incubated in 25 ml LURIA-BERTANI medium (tryptone 10 g/L, yeast extract 5 g/L, NaCl 10 g/L) added with ampicillin and chloramphenicol (50 μg/ml each) overnight at 37° C. This pre-culture is used to inoculate 2 litres of the same medium added with ampicillin (50 μg/ml) and the cells are cultivated at 37° C. in a stirred incubator (180 rpm) up to 0.6 Optical Density (DO=600 nm). IPTG is added (0.5 mM) so as to induce the protein expression during a new 5-hour culture phase at 25° C. Cells are centrifuged and kept overnight at −45° C. Cells are then re-suspended in 15 ml TrisNaCl (50 mM, pH7.9, 500 mM, respectively) then subjected to ice sonication in the presence of a protease inhibitor (phenylmethanesulfonyl fluoride), leupeptin, pepstatin and aprotinin, 10 μg/ml each). The cellular debris are removed during a new centrifugation step at 13,000 g during 15 minutes and the supernatant is immediately used for enzymatic purification.\n(§5) Due to the presence of a Histidine tag associated with each of the ACS8, the latter are purified by using a nickel column (Ni-IDA 15 ml) previously balanced with TRIS at PH8 and NaCl (500 mM). After passing the solution containing recombinant ACS8 to be purified, the column is then washed with TRIS at PH8 (50 mM) and NaCl (500 mM) added with imidazole (10 mM) until no protein can be detected at the output any longer. The ACS8 are then eluted with the same buffer solution added with imidazole at 100 mM, then dialysed (KPhos 50 mM á PH8.5) before concentration (MILLIPORE AMICON ULTRA DEVICE, 5000 MWC0). The concentrated fraction (20 mg/ml) of ACS8 is aliquoted and stored with glycerol at −45° C. The purification of protein is followed by capillary electrophoresis (EXPERION DEVICE—BIO RAD) with a PRO260 chip."}, "[4]": {"target": "Cucumis melo ACS8 variant Cmacs8_G72E (G72E), SEQ ID not listed (Cucumis melo, UniProt A0A0S2C3P7, G72E)", "sequence (A0A0S2C3P7 entry or part of it G72E)": "as the sequence (A0A0S2C3P7 entry or part of it L45F) above, with F45L, G72E counted along it", "test": "Transforming activity of methionine S-adenosyl into aminocyclopropane carboxylate (MTA formation at 265 nm)", "assay_type": "biochemical", "conditions": "pH 8.5, 25° C.", "protocol": "as §1, §2, §3, §4, §5"}, "[5]": {"target": "Cucumis melo ACS8 variant Cmacs8_S295F (S295→F), SEQ ID No 18 (Cucumis melo, UniProt A0A0S2C3P7, S295F)", "sequence (A0A0S2C3P7 entry or part of it S295F)": "as the sequence (A0A0S2C3P7 entry or part of it L45F) above, with F45L, S295F counted along it", "test": "Transforming activity of methionine S-adenosyl into aminocyclopropane carboxylate (MTA formation at 265 nm)", "assay_type": "biochemical", "conditions": "pH 8.5, 25° C.", "protocol": "as §1, §2, §3, §4, §5"}, "[6]": {"target": "T1, Cucumis sativus ACS8 (1-aminocyclopropane-1-carboxylate synthase 8), CsACS8, wild, SEQ ID No 3 (Cucumis sativus, UniProt A0A0A0LKW1)", "T1 construct": "N-terminus MASLSSKASHDSHGQNSS", "T1 sequence (A0A0A0LKW1 1-440)": "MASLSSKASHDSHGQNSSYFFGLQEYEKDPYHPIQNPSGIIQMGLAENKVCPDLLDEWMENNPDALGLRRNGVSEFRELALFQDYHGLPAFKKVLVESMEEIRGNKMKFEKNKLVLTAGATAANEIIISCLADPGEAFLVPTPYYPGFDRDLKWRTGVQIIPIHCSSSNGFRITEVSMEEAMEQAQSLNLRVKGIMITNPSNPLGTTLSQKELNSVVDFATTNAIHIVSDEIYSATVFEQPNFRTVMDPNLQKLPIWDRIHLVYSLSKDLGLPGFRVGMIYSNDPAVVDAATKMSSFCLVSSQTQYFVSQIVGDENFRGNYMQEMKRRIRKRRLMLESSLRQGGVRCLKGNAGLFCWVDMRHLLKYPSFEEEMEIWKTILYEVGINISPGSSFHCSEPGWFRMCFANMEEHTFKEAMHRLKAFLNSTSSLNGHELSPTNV", "test": "Transforming activity of methionine S-adenosyl into aminocyclopropane carboxylate (MTA formation at 265 nm)", "assay_type": "biochemical", "conditions": "pH 8.5, 25° C.", "protocol": "as §1, §2, §3, §4, §5"}}}
{"smiles": "O=P(O)(O)CCCl", "note": "[ethrel]", "values": [{"measurement": "production of female flowers after treatment", "setting": "[1]", "result": "briefly produced female flowers"}, {"measurement": "effect on male flowers", "setting": "monoecious melon plants", "result": "temporary disappearance of male flowers"}]}
{"smiles": "C[S+](CC[C@H](N)C(=O)[O-])C[C@H]1O[C@@H](n2cnc3c(N)ncnc32)[C@H](O)[C@@H]1O", "note": "(some centres unmarked) [S-adenosyl Methionine]", "values": [{"measurement": "Km", "setting": "[2]", "result": "23 ± 4", "unit": "µM"}, {"measurement": "Km", "setting": "[3]; PLP 5 μm", "result": "20 ± 5", "unit": "µM"}, {"measurement": "Km", "setting": "[3]; PLP 100 μm", "result": "20 ± 5", "unit": "µM"}, {"measurement": "Km", "setting": "[4]; PLP 5 μm", "result": "17 ± 5", "unit": "µM"}, {"measurement": "Km", "setting": "[4]; PLP 100 μm", "result": "15 ± 5", "unit": "µM"}, {"measurement": "Km", "setting": "[5]; PLP 5 μm", "result": "16 ± 5", "unit": "µM"}, {"measurement": "Km", "setting": "[5]; PLP 100 μm", "result": "15 ± 5", "unit": "µM"}, {"measurement": "Km", "setting": "[6]; PLP 5 μm", "result": "20 ± 6", "unit": "µM"}, {"measurement": "Km", "setting": "[6]; PLP 100 μm", "result": "25 ± 6", "unit": "µM"}]}
